Laboratory results: ChEMBL document CHEMBL5143655, “Synthesis and biological evaluation of 1,2,4-triazole derivatives as potential Nrf2 activators for the treatment of cerebral ischemic injury” (Eur J Med Chem, 2022)
Calls of active or inactive are those of the source. The rule behind the calls is not given here.

Experiments:
[1] = Metabolic stability in human plasma assessed as parent compound remaining at 200 uM measured after 120 min by LC-MS/MS analysis relative to control; type: ADME, cell-free; settings: read-out: Stability
[2] = Metabolic stability in human plasma assessed as parent compound remaining at 200 uM measured after 60 min by LC-MS/MS analysis relative to control; type: ADME, cell-free; settings: read-out: Stability
[3] = Metabolic stability in human plasma assessed as half life at 200 uM by LC-MS/MS analysis relative to control; type: ADME, cell-free
[4] = system: Rattus norvegicus; experiment: Neuroprotective activity in Sprague-Dawley rat model of middle cerebral artery occlusion-induced ischemia reperfusion injury assessed as increase in serum SOD level at 3 to 30 mg/kg, ip preincubated for 1 hrs followed by MCAO operation and further incubated with compound for 4 hrs after reperfusion; type: functional, organism-based; settings: dose 3-30 mg/kg, time 5.0 hrs
[5] = system: PC-12; experiment: Neuroprotective activity against SNP-induced apoptotic rat PC-12 cells assessed as reduction in nuclear shrinkage by measuring the decrease in blue fluorescence signal at 10 uM preincubated for 2 hrs followed by SNP stimulation for 24 hrs by Hoechst 33258 staining based fluorescence microscopic analysis; type: functional, cell-based
[6] = Cytotoxicity against human HaCaT cells assessed as reduction in cell viability by MTT assay; type: toxicity, cell-based
[7] = Tmax in Sprague-Dawley rat at 5 mg/kg, iv measured upto 24 hrs by LC-MS/MS analysis; type: ADME, organism-based; settings: in vivo
[8] = system: PC-12; experiment: Cytoprotective activity against SNP - induced oxidative stress in rat PC-12 cells assessed as restoration of mitochondrial membrane potential at 10 uM preincubated for 2 hrs followed by SNP stimulation for 24 hrs by JC-1 staining based fluorescence microscopic analysis; type: functional, cell-based
[9] = Half life in Sprague-Dawley rat at 5 mg/kg, iv measured upto 24 hrs by LC-MS/MS analysis; type: ADME, organism-based; settings: in vivo
[10] = Acute toxicity in BALB/c mouse assessed as survival rate at 175 mg/kg, ip measured after 7 days; type: organism-based; settings: in vivo, 168 h, time 7 day
[11] = Tmax in Sprague-Dawley rat at 5 mg/kg, ip measured upto 24 hrs by LC-MS/MS analysis; type: ADME, organism-based; settings: in vivo
[12] = Acute toxicity in ip dosed BALB/c mouse assessed as lethal dose measured after 7 days; type: organism-based; settings: in vivo, time 7 day
[13] = system: PC-12; experiment: Neuroprotective activity against SNP-induced apoptotic rat PC-12 cells assessed as restoration of cell morphology at 10 uM preincubated for 2 hrs followed by SNP stimulation for 24 hrs by Hoechst 33258 staining based fluorescence microscopic analysis; type: functional
[14] = system: PC-12; experiment: Neuroprotective activity against SNP induced rat PC-12 cells assessed as increase in cell viability at 10 uM preincubated for 2 hrs followed by SNP stimulation for 24 hrs by MTT assay relative to control; type: functional
[15] = system: Rattus norvegicus; experiment: Neuroprotective activity in Sprague-Dawley rat model of middle cerebral artery occlusion-induced ischemia-reperfusion injury assessed as decrease in neurological score at 3 mg/kg, ip preincubated for 1 hrs followed by MCAO operation and further incubated with compound for 4 hrs after reperfusion; type: functional; settings: time 5 hrs
[16] = target: T1, Nuclear factor erythroid 2-related factor 2 (Rattus norvegicus) (UniProt O54968); experiment: Activation of Nrf2 pathway in rat PC-12 cells assessed as increase in NQO1 level at 2.5 to 10 uM measured after 3 hrs by Western blot analysis; type: cell-based; settings: filed as activator, dose 2.5-10 µM
T1 sequence (whole entry): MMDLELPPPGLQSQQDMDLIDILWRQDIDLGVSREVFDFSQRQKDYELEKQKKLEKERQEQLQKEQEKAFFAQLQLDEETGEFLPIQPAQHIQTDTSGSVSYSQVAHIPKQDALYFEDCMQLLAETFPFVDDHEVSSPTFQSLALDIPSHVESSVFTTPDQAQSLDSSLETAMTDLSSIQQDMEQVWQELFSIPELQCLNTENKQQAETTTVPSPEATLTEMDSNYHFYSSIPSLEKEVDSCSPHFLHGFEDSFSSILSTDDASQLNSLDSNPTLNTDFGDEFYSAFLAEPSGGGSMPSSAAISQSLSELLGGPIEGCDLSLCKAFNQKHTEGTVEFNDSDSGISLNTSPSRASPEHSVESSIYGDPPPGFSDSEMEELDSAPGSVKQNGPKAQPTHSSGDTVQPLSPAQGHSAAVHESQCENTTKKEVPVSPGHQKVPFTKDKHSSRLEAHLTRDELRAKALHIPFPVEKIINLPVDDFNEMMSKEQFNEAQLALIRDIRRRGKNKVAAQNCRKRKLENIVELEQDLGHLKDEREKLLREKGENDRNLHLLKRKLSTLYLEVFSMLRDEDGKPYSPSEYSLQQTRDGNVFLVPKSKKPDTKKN

[17] = Cytotoxicity against rat PC-12 cells assessed as reduction in cell viability by MTT assay; type: toxicity, cell-based
[18] = target: T1, Nuclear factor erythroid 2-related factor 2 (Rattus norvegicus); experiment: Activation of Nrf2 pathway in rat PC-12 cells assessed as reversal of ML385 induced inhibition of Nrf2 protein expression at 10 uM measured after 3 hrs in the presence of Nrf2 signalling inhibitor ML385 by Western blot analysis; type: cell-based; settings: filed as activator
[19] = target: T1, Nuclear factor erythroid 2-related factor 2 (Rattus norvegicus); experiment: Activation of Nrf2 pathway in rat PC-12 cells assessed as increase in GCLC level at 2.5 to 10 uM measured after 3 hrs by Western blot analysis; type: cell-based; settings: filed as activator, dose 2.5-10 µM
[20] = MRT in Sprague-Dawley rat at 5 mg/kg, iv measured upto 24 hrs by LC-MS/MS analysis; type: ADME, organism-based; settings: in vivo
[21] = Acute toxicity in BALB/c mouse assessed as survival rate at 550 mg/kg, ip measured after 7 days; type: organism-based; settings: in vivo, 168 h, time 7 day
[22] = system: Rattus norvegicus; experiment: Neuroprotective activity in Sprague-Dawley rat model of middle cerebral artery occlusion-induced ischemia-reperfusion injury assessed as attenuation of behavioral deficit at 30 mg/kg, ip preincubated for 1 hrs followed by MCAO operation and further incubated with compound for 4 hrs after reperfusion; type: functional; settings: time 5 hrs
[23] = Metabolic stability in human plasma assessed as parent compound remaining at 200 uM measured after 90 min by LC-MS/MS analysis relative to control; type: ADME, cell-free; settings: read-out: Stability
[24] = Metabolic stability in human plasma assessed as parent compound remaining at 200 uM measured after 15 min by LC-MS/MS analysis relative to control; type: ADME, cell-free; settings: read-out: Stability
[25] = Plasma protein binding in human plasma at 10 uM incubated for 6 hrs by LC-MS/MS based equilibrium dialysis method; type: ADME, cell-free; settings: read-out: PPB (converted)
[26] = Clearence in Sprague-Dawley rat at 5 mg/kg, ip measured upto 24 hrs by LC-MS/MS analysis; type: ADME, organism-based; settings: in vivo
[27] = MRT in Sprague-Dawley rat at 5 mg/kg, ip measured upto 24 hrs by LC-MS/MS analysis; type: ADME, organism-based; settings: in vivo
[28] = Acute toxicity in BALB/c mouse assessed as survival rate at 1000 mg/kg, ip measured after 7 days; type: organism-based; settings: in vivo, 168 h, time 7 day
[29] = Half life in Sprague-Dawley rat at 5 mg/kg, ip measured upto 24 hrs by LC-MS/MS analysis; type: ADME, organism-based; settings: in vivo
[30] = system: Rattus norvegicus; experiment: Neuroprotective activity in Sprague-Dawley rat model of middle cerebral artery occlusion-induced ischemia reperfusion injury assessed as decrease in serum MDA level at 3 to 30 mg/kg, ip preincubated for 1 hrs followed by MCAO operation and further incubated with compound for 4 hrs after reperfusion; type: functional, organism-based; settings: dose 3-30 mg/kg, time 5.0 hrs

Cc1cc(C)cc(-n2nc(-c3ccc(C(F)(F)F)cc3O)nc2-c2ccccc2O)c1
remaining at 2 h, 200 µM [1]: 88.9%
remaining at 1 h, 200 µM [2]: 90.7%
half-life at 200 µM [3]: > 529 min
Activity [4]: Active
Activity [5]: Active
IC50 [6]: 127 µM
Tmax [7]: 4.8 min
Activity [8]: Active
half-life [9]: 496 min
Activity [10]: Non-Toxic
Tmax [11]: 2 h
LD50 at 168 h [12]: 789 mg/kg
Activity [13]: Active
Activity [14]: 105.13%
Activity [15]: 1.87
Activity [16]: Active
IC50 [17]: 263 µM
Activity [18]: Active
Activity [19]: Active
MRT [20]: 2.84 h
Activity [21]: Non-Toxic
Activity [22]: 1.5
remaining at 1.5 h, 200 µM [23]: 89.5%
remaining at 0.25 h, 200 µM [24]: 95.8%
fraction unbound at 6 h, 10 µM [25]: 0.0006
CL [26]: 0.0017 (mg/kg)/(ng/ml)/hr
MRT [27]: 16.5 h
Activity [28]: Toxic
half-life [29]: 765 min
Activity [30]: Active
